Biological target: T1, HDAC6 enzyme (Homo sapiens, UniProt Q9UBN7)
T1 construct: prepared by transducing full length HDAC6 gene into Sf-9 insect cells; GST; purchased SignalChem; host or cells: Sf-9 insect cells
T1 sequence (Q9UBN7 1-1215): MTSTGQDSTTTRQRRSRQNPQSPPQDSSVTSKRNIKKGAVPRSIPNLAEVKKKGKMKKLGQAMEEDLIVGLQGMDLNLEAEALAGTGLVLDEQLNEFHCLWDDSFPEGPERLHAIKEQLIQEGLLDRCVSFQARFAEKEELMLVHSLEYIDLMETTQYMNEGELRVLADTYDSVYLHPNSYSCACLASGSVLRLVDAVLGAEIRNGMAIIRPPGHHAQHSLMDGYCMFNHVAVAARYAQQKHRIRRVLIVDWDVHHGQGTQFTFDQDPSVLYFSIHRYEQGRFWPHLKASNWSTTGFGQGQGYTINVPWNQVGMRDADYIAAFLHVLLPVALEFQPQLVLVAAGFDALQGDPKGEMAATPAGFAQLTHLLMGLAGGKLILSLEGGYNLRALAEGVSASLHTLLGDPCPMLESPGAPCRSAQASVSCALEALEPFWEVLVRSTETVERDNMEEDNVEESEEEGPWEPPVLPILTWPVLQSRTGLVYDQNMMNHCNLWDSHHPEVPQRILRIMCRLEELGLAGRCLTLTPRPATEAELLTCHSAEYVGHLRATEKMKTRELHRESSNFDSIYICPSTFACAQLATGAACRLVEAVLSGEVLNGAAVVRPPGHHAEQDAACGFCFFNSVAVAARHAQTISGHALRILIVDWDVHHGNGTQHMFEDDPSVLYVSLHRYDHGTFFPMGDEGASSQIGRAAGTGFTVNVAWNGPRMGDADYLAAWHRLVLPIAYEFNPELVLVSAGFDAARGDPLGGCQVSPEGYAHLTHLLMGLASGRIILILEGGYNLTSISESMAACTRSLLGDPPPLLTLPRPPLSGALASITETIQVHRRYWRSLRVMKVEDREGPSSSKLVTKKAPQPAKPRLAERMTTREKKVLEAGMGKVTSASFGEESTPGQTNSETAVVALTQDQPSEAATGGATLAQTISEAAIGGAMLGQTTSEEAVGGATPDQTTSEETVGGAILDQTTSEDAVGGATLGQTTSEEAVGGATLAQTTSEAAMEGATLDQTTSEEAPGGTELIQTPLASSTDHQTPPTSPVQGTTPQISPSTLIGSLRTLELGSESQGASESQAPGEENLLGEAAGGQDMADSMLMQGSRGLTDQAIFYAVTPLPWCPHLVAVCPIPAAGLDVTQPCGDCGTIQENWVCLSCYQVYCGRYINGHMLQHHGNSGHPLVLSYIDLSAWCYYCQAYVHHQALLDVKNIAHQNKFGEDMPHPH
Assay: HDAC6 enzyme inhibitory assay (HDAC-Glo I/II Assay kit, luminescence)
Format: biochemical
Settings: 10 μM test compound; wells without enzyme = 100% inhibition; 10 µM
Method in brief: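 Full-length human HDAC6, GST-purified from Sf-9 cells, was preincubated with compound for 60 min at room temperature in Tris-HCl pH 7.5 buffer with glutathione and Tween-20. Substrate-developer was then added, and luminescence was read after 20 min at room temperature. Inhibition was expressed relative to no-enzyme wells, taken as 100% inhibition.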

Row | SMILES | HDAC6 inhibitory rate (%) (10 μM)
1 | CN1C(=O)c2cc(-c3nnc(C(F)F)o3)ccc2OC1(C)c1ccc(F)cc1 (single isomer, unassigned; isomer 2) [Example 9b, 6-[5-(difluoromethyl)-1,3,4-oxadiazol-2-yl]-2-(4-fluorophenyl)-2,3-dimethyl-2,3-dihydro-4H-1,3-benzoxazin-4-one (optical isomer 2)] | 96%

Same assay, conditions: 10 μM test compound; wells without enzyme = 100% inhibition; read-out: HDAC6 inhibitory rate (%) (10 μM)

Row | inhibition at 10 µM | SMILES
2 | 97% | CN(C(=O)OC(C)(C)C)N1Cc2ccc(-c3nnc(C(F)F)o3)cc2C1=O [Example 38c, tert-butyl {6-[5-(difluoromethyl)-1,3,4-oxadiazol-2-yl]-1-oxo-1,3-dihydro-2H-isoindol-2-yl}methylcarbamate]
3 | 97% | CN(C)c1ccc(CN(C)N2Cc3ccc(-c4nnc(C(F)F)o4)cc3C2=O)cc1 [Example 54c, 6-[5-(difluoromethyl)-1,3,4-oxadiazol-2-yl]-2-[{[4-(dimethylamino)phenyl]methyl} (methyl)amino]-2,3-dihydro-1H-isoindol-1-one]
4 | 99% | CN1C(=O)c2cc(-c3nnc(C(F)F)o3)ccc2OC1(C)c1ccc(C#N)cc1 (centres unmarked) [Example 20b, 4-{6-[5-(difluoromethyl)-1,3,4-oxadiazol-2-yl]-2,3-dimethyl-4-oxo-3,4-dihydro-2H-1,3-benzoxazin-2-yl}benzonitrile]
5 | 100% | Fc1ccc(Cc2ccnn2-c2cc(-c3nnc(C(F)F)o3)ccn2)cc1 [Example 73a, 4-[5-(difluoromethyl)-1,3,4-oxadiazol-2-yl]-2-[5-[(4-fluorophenyl)methyl]-1H-pyrazol-1-yl}pyridine]
6 | 88% | O=C1c2cc(-c3nnc(C(F)F)o3)ccc2CN1Nc1ccc(F)cn1 [Example 39c, 6-[5-(difluoromethyl)-1,3,4-oxadiazol-2-yl]-2-[(5-fluoropyridin-2-yl)amino]-2,3-dihydro-1H-isoindol-1-one]
7 | 100% | CN1C(=O)c2cc(-c3nnc(C(F)F)o3)ccc2OC1c1ccc(F)cc1 (centres unmarked) [Example 44b, 6-[5-(difluoromethyl)-1,3,4-oxadiazol-2-yl]-2-(4-fluorophenyl)-3-methyl-2,3-dihydro-4H-1,3-benzoxazin-4-one]

More lines, now with the values behind:

Row | SMILES | inhibition at 10 µM
8 | Fc1cccc(Cn2ncnc2-c2cc(-c3nnc(C(F)F)o3)ccn2)c1 [Example 85a, 4-[5-(difluoromethyl)-1,3,4-oxadiazol-2-yl]-2-{1-[(3-fluorophenyl)methyl]-1H-1,2,4-triazol-5-yl}pyridine] | 101%
9 | O=C1c2cc(-c3nnc(C(F)F)o3)cnc2CN1Nc1c(F)c(F)c(F)c(F)c1F [Example 33c, 3-[5-(difluoromethyl)-1,3,4-oxadiazol-2-yl]-6-(pentafluoroanilino)-6,7-dihydro-5H-pyrrolo[3,4-b]pyridin-5-one] | 99%
10 | Cn1ccc(OCc2ccccc2)c(-c2cc(F)cc(-c3nnc(C(F)F)o3)c2)c1=O [Example 35a, 4-(benzyloxy)-3-{3-[5-(difluoromethyl)-1,3,4-oxadiazol-2-yl]-5-fluorophenyl}-1-methylpyridin-2(1H)-one] | 98%
11 | CC(=O)N1CCC(Cn2ccnc2-c2cc(F)cc(-c3nnc(C(F)F)o3)c2)CC1 [Example 31a, 1-{4-[(2-{3-[5-(difluoromethyl)-1,3,4-oxadiazol-2-yl]-5-fluorophenyl}-1H-imidazol-1-yl)methy]piperidin-1-yl}ethan-1-one] | 98%
12 | Fc1cc(-c2nnc(C(F)F)o2)cc(-c2nccn2Cc2ccccc2)c1 [Example 4a, 2-[3-(1-benzyl-1H-imidazol-2-yl)-5-fluorophenyl]-5-(difluoromethyl)-1,3,4-oxadiazole] | 99%
13 | Fc1cc(-c2nnc(C(F)F)o2)cc(-c2ncccc2OCc2ccccn2)c1 [Example 11a, 2-{3-[5-(difluoromethyl)-1,3,4-oxadiazol-2-yl]-5-fluorophenyl}-3-[(pyridin-2-yl)methoxy]pyridine] | 94%
14 | O=C1COC[C@@H](Cc2ccccc2)N1c1cc(-c2nnc(C(F)F)o2)ccn1 [Example 19a, (5R)-5-benzyl-4-{4-[5-(difluoromethyl)-1,3,4-oxadiazol-2-yl]pyridin-2-yl}morpholin-3-one] | 99%

From patent US12084436B2, “Heterocyclic compound” (Takeda Pharmaceutical Company Limited, priority 2019, dated 2024)
